Test results reported in patent US10792282B2, “Protein kinase C inhibitors and uses thereof” (Rigel Pharmaceuticals, Inc., priority 2013, dated 2020).
Like-named read-outs stand apart in the source and are kept apart here.

Test system: PKC mediated IL-2 production
Assay: IL-2 ELISA, human primary T cell, anti CD3+CD28+ (whole cell functional assay)
Type: cell-based
Protocol: Human primary T cells were prepared as follows. Fresh PBMC's from All Cells (Cat # PB002) were re-suspended in RPMI (RPMI-1640 with L-Glutamine; Mediatech, Inc., Herndon Va., cat. #10-040-CM) with 10% FBS and seeded into flasks and incubated at 37° C. for 2 hours to allow the monocytes to adhere. The non-adherent cells were then centrifuged and re-suspended in RPMI medium containing 40 U/ml IL2 and seeded into a flask pre-coated with 1 μg/ml aCD3 and 5 ug/ml aCD28 (Anti-Human CD3, BD Pharmingen Catalog #555336, Anti-Human CD28, Beckman Coulter Catalog # IM1376). The cells were stimulated for 3-4 days, then transferred to a fresh flask and maintained in RPMI (RPMI-1640 with L-Glutamine; Mediatech, Inc., Herndon Va., cat. #10-040-CM) with 10% FBS and 40 U/ml IL-2.
(§1) Human primary T cells (100,000 cells per well) were pre-incubated with or without test compound in RPMI-1640 with L-Glutamine and 10% FBS for 1 hour at 37° C. Cells were then stimulated by transferring them to round-bottom 96-well plates pre-coated with 1 μg/ml αCD3 and 5 μg/ml αCD28. For counter assay, cells were instead stimulated by adding 8× stock solutions of PMA and ionomycin in RPMI-1640 with L-Glutamine and 10% FBS (for final concentrations of 0.5 ng/ml PMA and 0.1 μM ionomycin, both from Calbiochem). Cells were incubated at 37° C. for 24 hours before 100 μL supernatants were harvested for quantification of IL-2 by ELISA using Human IL-2 Duoset ELISA Kit from R and D Systems, Cat. # DY202E.
Compounds 1-90 were tested in a whole cell functional assay for PKC mediated IL-2 production as follows. Human primary T cell isolation and culture: Human primary T cells were prepared as follows. Whole blood was obtained from a healthy volunteer, mixed 1:1 with PBS, layered on to Ficoll Hypaque (Amersham Pharmacia Biotech, Piscataway, N.J., Catalog #17-1440-03) in 2:1 blood/PBS:ficoll ratio and centrifuged for 30 minutes at 4° C. at 1750 rpm. The cells at the serum: ficoll interface were recovered and washed twice with 5 volumes of PBS. These freshly isolated human peripheral blood mononuclear cells were cultured in Yssel's medium containing 40 U/ml IL2 in a flask pre-coated with 1 μg/ml αCD3 and 5 μg/ml αCD28 (Anti-Human CD3, BD Pharmingen Catalog #555336, Anti-Human CD28, Beckman Coulter Catalog # IM1376). The cells were stimulated for 3-4 days, then transferred to a fresh flask and maintained in RPMI (RPMI-1640 with L-Glutamine; Mediatech, Inc., Herndon Va., cat. #10-040-CM) with 10% FBS and 40 U/ml IL-2. The primary T-cells were then washed twice with PBS to remove the IL-2.
as §1, with “Primary T cell stimulation and IL2 ELISA: Human primary” for “Human primary”, “compound in Yssel's medium for 1” for “compound in RPMI-1640 with L-Glutamine and 10% FBS for 1”, “ionomycin in Yssels (for final” for “ionomycin in RPMI-1640 with L-Glutamine and 10% FBS (for final”, “and 0.1 uM ionomycin, both” for “and 0.1 μM ionomycin, both”

[1] = Homo sapiens, T-cell, 24 h, IL-2 production, human primary T cells stimulated with αCD3 and αCD28, 24 hours, IL-2 by ELISA, read-out: EC50
[2] = Homo sapiens, T-cell, human primary T cells stimulated with αCD3 and αCD28, IL-2 by ELISA, read-out: EC50 (blocked IL-2 production)
[3] = IL-2 production, human primary T cells stimulated with αCD3 and αCD28, 24 hours, IL-2 by ELISA, read-out: EC50

Row | Compound | EC50 [1] [µM] | EC50 [2] [µM] | other results
1 | Cn1nnn(-c2cc(Nc3ncc(F)c(N[C@@H]4C[C@@H]5C[C@H](F)CN5C(C)(C)C4)n3)c(F)cc2C2CC2)c1=O [Compound 67, 1-(5-(4-((2S,7R,8aR)-2-fluoro-octahydro-5,5-dimethylindolizin-7-ylamino)-5-fluoropyrimidin-2-ylamino)-2-cyclopropyl-4-fluorophenyl)-4-methyl-1H-tetrazol-5(4H)-one] | < 0.5 | < 10 | –
2 | Cn1nnn(-c2cc(Nc3ncc(F)c(N[C@@H]4C[C@@H]5CCCN5C(C)(C)C4)n3)c(F)cc2OCCO)c1=O [Compound 77, 1-(2-(2-hydroxyethoxy)-5-(4-((7R,8aS)-octahydro-5,5-dimethylindolizin-7-ylamino)-5-fluoropyrimidin-2-ylamino)-4-fluorophenyl)-4-methyl-1H-tetrazol-5(4H)-one] | – | – | EC50 (T-cell, human primary T cells stimulated with αCD3 and αCD28, IL-2 by ELISA, read-out: EC50 (blocked IL-2 production)): < 10 µM
3 | CC1(C)C[C@H](Nc2nc(Nc3cc(-n4cnnn4)c(C4CC4)cc3F)ncc2F)C[C@@H]2CC(F)(F)CN21 [Compound 46, N^2-(4-cyclopropyl-2-fluoro-5-(1H-tetrazol-1-yl)phenyl)-5-fluoro-N^4-((7R,8aR)-2,2-difluoro-octahydro-5,5-dimethylindolizin-7-yl)pyrimidine-2,4-diamine] | < 1 | < 10 | –
4 | CC1(C)Oc2ccc(Nc3ncc(F)c(NC4CC5CCCN5C(C)(C)C4)n3)cc2-n2nnnc21 (stereo not drawn) [Compound 1, N2-(4,4-dimethyl-4H-benzo[b]tetrazolo[1,5-d][1,4]oxazin-8-yl)-5-fluoro-N4-(octahydro-5,5-dimethylindolizin-7-amine)pyrimidine-2,4-diamine] | – | – | EC50 [3]: < 0.5 µM
5 | Cn1nnn(-c2cc(Nc3ncc(F)c(NC4CCN5CCCC5C4)n3)c(F)cc2C2CC2)c1=O (racemic) [Compound 27, (±)-1-(5-(5-fluoro-4-(octahydroindolizin-7-ylamino)pyrimidin-2-ylamino)-2-cyclopropyl-4-fluorophenyl)-4-methyl-1H-tetrazol-5(4H)one] | < 10 | < 10 | –
6 | C[C@H](O)COc1cc(F)c(Nc2ncc(C#N)c(N[C@@H]3C[C@@H]4CCCN4C(C)(C)C3)n2)cc1-n1nnn(C)c1=O [Compound 79, 4-((7R,8aS)-octahydro-5,5-dimethylindolizin-7-ylamino)-2-(4-((S)-2-hydroxypropoxy)-2-fluoro-5-(4,5-dihydro-4-methyl-5-oxotetrazol-1-yl)phenylamino)pyrimidine-5-carbonitrile] | < 0.1 | < 10 | –
7 | CC1(C)CC(Nc2nc(Nc3cc(-n4cnnn4)c(C4CC4)cc3F)ncc2F)CC2CCCN21 (racemic) [Compound 54, (±)-N2-(4-cyclopropyl-2-fluoro-5-(1H-tetrazol-1-yl)phenyl)-5-fluoro-n^4-(octahydro-5,5-dimethylindolizin-7-yl)pyrimidine-2,4-diamine] | – | – | EC50 [3]: < 0.1 µM
8 | CC1(C)CC(Nc2nc(Nc3ccc(O[C@@H]4CCOC4)c(C#N)c3)ncc2F)CC2CCCN21 (single isomer, unassigned) [Compound 58] | – | < 10 | EC50 [3]: < 10 µM
9 | Cn1nnn(-c2cc(Nc3ncc(F)c(NC4CC(=O)N5C(CCC5(C)C)C4)n3)c(F)cc2C2CC2)c1=O (stereo not drawn) [Compound 30] | > 10 | < 10 | –
10 | CC1(C)CC(Nc2nc(Nc3ccc(O[C@H]4CCOC4)c(C#N)c3)ncc2F)CC2CCCN21 (stereo partly drawn) [Compound 60, 2-((S)-tetrahydrofuran-3-yloxy)-5-(5-fluoro-4-(octahydro-5,5-dimethylindolizin-7-ylamino)pyrimidin-2-ylamino)benzonitrile] | < 0.5 | < 10 | –
11 | CC1(C)CC(Nc2nc(Nc3ccc(O[C@@H]4CCOC4)c(C#N)c3)ncc2F)CC2CCCN21 (stereo partly drawn) [Compound 57, 2-((R)-tetrahydrofuran-3-yloxy)-5-(5-fluoro-4-(octahydro-5,5-dimethylindolizin-7-ylamino)pyrimidin-2-ylamino)benzonitrile] | < 0.5 | < 10 | –
12 | CC1(C)C[C@H](Nc2nc(Nc3cc(S(F)(F)(F)(F)F)ccc3F)ncc2F)C[C@@H]2CCCN21 [Compound 71] | < 1 | < 10 | –
13 | CC1(C)CC(Nc2nc(Nc3ccc(O[C@H]4CCOC4)c(C#N)c3)ncc2F)CC2CCCN21 (single isomer, unassigned) [Compound 61] | < 1 | < 10 | –
14 | Cn1nnn(-c2cc(Nc3ncc(F)c(N[C@@H]4CCN5C(CCC5(C)C)C4)n3)c(F)cc2C2CC2)c1=O (mixture of isomers) [Compound 25] | – | – | EC50 [3]: < 10 µM
15 | Cn1nnn(-c2cc(Nc3ncc(F)c(N[C@@H]4C[C@@H]5CCCN5C(C)(C)C4)n3)c(F)cc2O)c1=O [Compound 89, 1-(5-(4-((7R,8aS)-octahydro-5,5-dimethylindolizin-7-ylamino)-5-fluoropyrimidin-2-ylamino)-4-fluoro-2-hydroxyphenyl)-4-methyl-1H-tetrazol-5(4H)-one] | < 10 | < 10 | –
16 | Cn1nnn(-c2cc(Nc3ncc(F)c(N[C@@H]4CCN5[C@@H](CCC5(C)C)C4)n3)c(F)cc2C2CC2)c1=O (single isomer, unassigned) [Compound 36] | – | – | EC50 [3]: < 10 µM
17 | CC(C)N1CCC(Oc2ccc(Nc3ncc(F)c(NC4CC5CCCN5C(C)(C)C4)n3)cc2OC(F)F)CC1 (stereo not drawn) [Compound 10, (R/S, S/R, R/R, S/S)—N^2-(4-(1-isopropylpiperidin-4-yloxy)-3-(difluoromethoxy)phenyl)-5-fluoro-N^4-(octahydro-5,5-dimethylindolizin-7-yl)pyrimidine-2,4-diamine] | – | – | EC50 [3]: < 0.5 µM
18 | C[C@H](O)COc1cc(F)c(Nc2ncc(F)c(N[C@@H]3C[C@@H]4CCCN4C(C)(C)C3)n2)cc1-n1nnn(C)c1=O [Compound 81, 1-(2-((S)-2-hydroxypropoxy)-5-(4-((7R,8aS)-octahydro-5,5-dimethylindolizin-7-ylamino)-5-fluoropyrimidin-2-ylamino)-4-fluorophenyl)-4-methyl-1H-tetrazol-5(4H)-one] | – | < 10 | EC50 (T-cell, IL-2 production, human primary T cells stimulated with αCD3 and αCD28, 24 hours, IL-2 by ELISA, read-out: EC50): < 0.1 µM
19 | Cn1nnn(-c2cc(Nc3ncc(F)c(N[C@H]4C[C@@H]5C[C@@H](F)CN5C(C)(C)C4)n3)c(F)cc2C2CC2)c1=O [Compound 65, 1-(5-(4-((2R,7S,8aR)-2-fluoro-octahydro-5,5-dimethylindolizin-7-ylamino)-5-fluoropyrimidin-2-ylamino)-2-cyclopropyl-4-fluorophenyl)-4-methyl-1H-tetrazol-5(4H)-one] | < 10 | < 10 | –
20 | COc1cc(F)c(Nc2ncc(F)c(N[C@@H]3C[C@@H]4CCCN4C(C)(C)C3)n2)cc1-n1nnn(C)c1=O [Compound 22, 1-(5-(4-((7R,8aS)-5,5-dimethyl-octahydroindolizin-7-ylamino)-5-fluoropyrimidin-2-ylamino)-4-fluoro-2-methoxyphenyl)-4-methyl-1H-tetrazol-5(4H)-one] | < 0.5 | < 10 | –
21 | CC1C(Nc2nc(Nc3cc(-n4nnn(C)c4=O)c(C4CC4)cc3F)ncc2F)CC(C)(C)N2CCCC12 (single isomer, unassigned) [Compound 69, 1-(5-(5-Fluoro-4-(octahydro-5,5,8-trimethylindolizin-7-ylamino)pyrimidin-2-ylamino)-2-cyclopropyl-4-fluorophenyl)-4-methyl-1H-tetrazol-5(4H)-one] | < 1 | < 10 | –
